# Assay results taken from USRE38132E1, “Phenylpyrrolidines, phenylimidazolidines,3-phenyl-1,3-oxizolidines and 3-phenyl-1,3-thiazolidines and their use in the treatment of inflammatory disease” (Boehringer Ingelheim Pharmaceuticals, Inc., priority 1997, dated 2003).
# Where two headings read alike, the source gives them in different places.
# Assays:
# [1] = molecular target: T1, interaction of ICAM-1 with the Leukointegrin CD18/CD11a (LFA-1) (Homo sapiens, UniProt P05107+P20701); assay: Assay to determine inhibition of LFA-1 binding to ICAM-1 (immunopurified LFA-1 on plate-bound sICAM-1, ELISA readout)
# T1 construct: endogenous in cells; sICAM-1: made in house, secreted from transfected CHO DUX cells
# [2] = system: SKW3 cells
# Excerpt: MMT Assay to Determine Cytotoxicity
# MTT, (3-(4,5-dimethylthiazol-2-yl)-2,5-diphenyl-2H-tetrazolium bromide), is a yellow substrate that is cleaved by cells with active mitochondria to yield a dark blue/purple formazan product. […] The amount of color is proportional to the number of viable cells. This assay system is used to assess the effect of test compounds on cell viability in vitro.
# SKW3 cells, which express LFA-1, are used. Cells used in each assay were adjusted to 1.25·10^6 cells/mL and 100 μL of this stock is dispersed into each well of a 96 well, flat bottom microtiter plate. For each condition in a particular experiment, triplicate wells are set up. Serial dilutions of each test compound or vehicle alone are added to each well. Cells are incubated with compound for 4-24 h at 37° C. before cell viability is assessed. Next, 10 μL of filter sterilized MTT is added to each well. The MTT stock is made in phosphate buffered saline at a concentration of 5 mg/mL. Plates are then incubated for 1 h at 37° C., 5% CO2 atmosphere. Periodically, the plates are examined for formazan crystal development.
# At the end of the incubation period, formazan crystals are dissolved by the addition of 100 μL of 0.04 N HCl in iso-propyl alcohol to each well. Each well is thoroughly mixed by repeated pipetting with a multichannel pipetter. The plates are allowed to sit at room temperature for 15-20 minutes and are then read with a spectrophotometer. Absorbance is measured at the test wavelength of 570 nm. Data are reported as the concentration range (in μM) wherein 50% of the cells are no longer viable.
# [3] = system: cell bound form of LFA-1 (CD18, CD11a) with ICAM-1, SKW3 cells; assay: Inhibition of SKW3 cell binding to ICAM-1 (PMA-stimulated); type: cell-based, human; conditions: read-out: Assay to Detect SKW3 Cells Binding to ICAM IC50
# Excerpt: (§1) Assay to Determine Inhibition of SKW3 cell binding to ICAM-1 vs. Binding to Fibronectin
# (§2) This assay is used to test the selective ability of a test compound to antagonize the interaction of a cell bound form of LFA-1 with ICAM-1. The assay uses a human T cell line, SKW3 cells which express CD18, CD11a and other integrins not related to CD18, CD11a and which can be “activated” by phorbol esters. Phorbol esters enhance the affinity of CD18, CD11a for ICAM-1.
# (§3) This same lymphocyte line, SKW3, also adheres to fibronectin in the presence of phorbol esters. This adhesion is mediated by membrane proteins independent of the LFA-1/ICAM-1 interaction. The SKW3 cells express another integrin, VLA4, which is the receptor for fibronectin. Therefore, as a preliminary indication of the selectivity of a test compounds to interfere with Leukointegrin/CAM interactions but not other integrin-ligand binding events, a compound can be tested for its ability to antagonize cell bound fibronectin receptor in its interaction with purified fibronectin. Compounds that inhibit this fibronectin adhesion are not specific antagonists of the CD18, CD11a/ICAM-1 binding.
# (§4) Description of Assay Protocol:
# (§5) Ninety-six well plates are coated with either sICAM-1(40 μg/mL) or fibronectin (100 μg/mL) in Diluting buffer for 1 h at room temperature. Added to the wells are 100 μL of the appropriately diluted test compound or 100 μL of RPMI with 15% fetal bovine serum as a control. SKW3 cells, which express CD18, CD11a and VLA4 (Dustin, M.; et al., J. Exp. Med. 1987, 165, 672-692) are washed and suspended to a concentration of 10^6 cells/mL in RPMI with 15% fetal bovine serum. Immediately before adding the cells to the wells, cells are stimulated with the phorbol ester 12-myristate 13-acetate (PMA) for a final concentration of […]. 100 μL of cells are then added to the wells resulting in a final concentration of […]. The plates are incubated for 2 h at 37° C. Unbound or loosely bound cells are gently washed away with RPMI.
# (§6) Data are reported as the concentration or concentration range (in μM) at which 50% of binding is inhibited.
# [4] = system: cell bound fibronectin receptor (VLA4) with fibronectin, SKW3 cells; assay: Inhibition of SKW3 cell binding to fibronectin (selectivity counter-assay); type: cell-based, human; conditions: for IC50: read-out: Assay to Detect SKW3 Cells Binding to FIBRONECTIN IC50
# Excerpt: as §1, §2, §3, §4, §5, §6
# [5] = system: LFA-1 dependent aggregation of JY cells; assay: JY cell homotypic aggregation assay (PMA-stimulated); type: cell-based, human; conditions: Homo sapiens
# Excerpt: This aggregation can be enhanced by the addition of phorbol esters. […] Thus, the extent of LFA-1-dependent binding may be determined by assessing the extent of spontaneous or phorbol ester-dependent aggregate formation.
# An agent which interferes with LFA-1 -dependent aggregation can be identified through the use of an assay capable of determining whether the agent interferes with either spontaneous, or phorbol ester-dependent aggregation of Epstein-Barr virus transformed cells. It is preferable to employ cells of the JY cell line (Terhost, L; et aL, Proc. Natl. Acad. Sci. USA, 1976, 73, 910) for the homotypic aggregation assay. This assay, capable of measuring LFA-1 dependent aggregation, may be employed to identify agents which act as antagonists to the LFA-1 dependent aggregation. Such agents may act by impairing the ability of either LFA-1 or ICAM-1 to mediate aggregation. Thus, agents may be examined to directly determine if they are antagonists of LFA-1 aggregation.
# as §4
# JY cells are cultured in RPMI 1640 culture medium supplemented with 10% fetal calf serum and 50 μg/mL gentamycin. The cells are cultured at 37° C. in an atmosphere of 5% CO2 at a relative humidity of 95%. JY cells used in this assay are washed two times with RPMI 1640 medium containing 5 mM HEPES buffer and resuspended to a concentration of 2·10^6 cells/mL. Added to flat-bottomed, 96-well microtiter plates are 50 μL of test compound diluted in complete medium, 50 μL of complete medium with or without purified monoclonal antibodies (negative and positive controls for inhibition, respectively), 50 μL of complete medium containing 200 ng/mL of the phorbol ester phorbol myristate acetate (PMA) and 100 μL of cells at a concentration of 2·10^6 cells/mL in complete medium. This yields a final concentration of […] PMA and 2·10^5 cells/well. Cells are allowed to settle spontaneously, and the degree of aggregation is scored at various time points. […] This procedure has been described by Rothlein, R. R.; et al., J. Exp. Med. 1986, 163, 1132-1149. This paper also reported that antibody to LFA-1 is capable of inhibiting the formation of aggregates.
# as §6
# [6] = values marked e approximated from incomplete dose-response curve
# [7] = Homo sapiens, SKW3, values marked c: no inhibition observed up to highest dose
# [8] = No inh = no inhibition observed up to highest dose, exact quantification not always possible due to intrinsic toxicity
# [9] = values marked c: no inhibition observed up to highest dose
# T1 sequence (P20701 26-1170): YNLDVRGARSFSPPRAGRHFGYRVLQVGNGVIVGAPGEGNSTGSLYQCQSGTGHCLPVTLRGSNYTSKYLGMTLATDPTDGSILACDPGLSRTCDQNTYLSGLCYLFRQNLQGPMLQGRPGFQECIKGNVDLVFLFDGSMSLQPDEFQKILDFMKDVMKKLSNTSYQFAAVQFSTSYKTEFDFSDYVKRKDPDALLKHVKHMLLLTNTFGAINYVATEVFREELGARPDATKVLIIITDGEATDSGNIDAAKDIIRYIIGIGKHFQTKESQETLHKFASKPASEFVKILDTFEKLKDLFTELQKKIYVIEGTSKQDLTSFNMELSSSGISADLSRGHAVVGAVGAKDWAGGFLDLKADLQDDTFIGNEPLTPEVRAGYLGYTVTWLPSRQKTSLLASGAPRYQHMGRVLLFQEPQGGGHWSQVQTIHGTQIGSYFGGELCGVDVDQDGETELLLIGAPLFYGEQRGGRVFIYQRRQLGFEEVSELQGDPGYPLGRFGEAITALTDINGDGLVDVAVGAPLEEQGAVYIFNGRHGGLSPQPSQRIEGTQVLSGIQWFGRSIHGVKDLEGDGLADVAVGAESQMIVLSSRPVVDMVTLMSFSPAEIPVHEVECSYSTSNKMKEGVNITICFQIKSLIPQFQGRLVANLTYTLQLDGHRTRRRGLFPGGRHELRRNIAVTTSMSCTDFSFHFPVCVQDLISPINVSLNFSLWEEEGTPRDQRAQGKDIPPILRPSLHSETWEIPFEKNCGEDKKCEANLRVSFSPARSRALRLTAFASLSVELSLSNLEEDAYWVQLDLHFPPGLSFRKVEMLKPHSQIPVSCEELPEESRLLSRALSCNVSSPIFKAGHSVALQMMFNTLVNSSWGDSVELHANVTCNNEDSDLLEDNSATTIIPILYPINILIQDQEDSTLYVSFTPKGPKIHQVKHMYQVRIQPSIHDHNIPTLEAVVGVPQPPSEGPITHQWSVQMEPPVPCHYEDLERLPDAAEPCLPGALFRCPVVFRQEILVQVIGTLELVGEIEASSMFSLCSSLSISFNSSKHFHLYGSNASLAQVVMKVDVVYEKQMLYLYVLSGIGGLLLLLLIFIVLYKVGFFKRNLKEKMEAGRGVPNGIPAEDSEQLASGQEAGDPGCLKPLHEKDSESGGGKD
# T1 sequence (P05107 23-769): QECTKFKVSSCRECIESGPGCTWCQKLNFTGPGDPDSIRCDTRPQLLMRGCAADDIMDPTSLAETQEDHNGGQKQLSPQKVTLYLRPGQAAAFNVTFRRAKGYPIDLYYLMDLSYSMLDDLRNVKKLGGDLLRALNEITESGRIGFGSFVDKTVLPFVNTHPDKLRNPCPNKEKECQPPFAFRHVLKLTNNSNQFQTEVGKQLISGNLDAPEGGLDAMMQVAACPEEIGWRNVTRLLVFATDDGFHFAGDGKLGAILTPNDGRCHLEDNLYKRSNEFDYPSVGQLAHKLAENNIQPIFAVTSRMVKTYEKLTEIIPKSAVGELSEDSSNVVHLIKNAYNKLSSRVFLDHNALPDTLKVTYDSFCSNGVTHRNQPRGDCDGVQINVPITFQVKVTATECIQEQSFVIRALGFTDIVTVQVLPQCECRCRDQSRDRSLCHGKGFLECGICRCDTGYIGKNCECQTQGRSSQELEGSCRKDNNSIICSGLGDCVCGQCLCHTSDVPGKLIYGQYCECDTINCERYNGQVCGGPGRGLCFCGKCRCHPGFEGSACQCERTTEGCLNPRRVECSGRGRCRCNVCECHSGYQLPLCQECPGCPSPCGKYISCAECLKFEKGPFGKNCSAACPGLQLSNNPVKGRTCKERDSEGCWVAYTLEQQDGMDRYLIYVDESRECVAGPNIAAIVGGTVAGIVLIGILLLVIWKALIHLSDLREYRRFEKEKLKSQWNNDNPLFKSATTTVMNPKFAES
SMILES,"Kd [1, 6]",Cellular Toxicity Assay MTT LD50 [2],"IC50 [3, 7]","IC50 [4, 7]","Assay to Detect SKW3 Cells Binding to FIBRONECTIN IC50 [4, 9]",other results
C[C@H](c1ccccc1)[C@H]1NC(=O)N(c2cc(Cl)cc(Cl)c2)C1=O [Example 21],0.69 µM,125 to 250 µM,< 16 µM,125 to 250 µM,,
C[C@@H](c1ccccc1)[C@@H]1C(=O)N(c2cc(Cl)cc(Cl)c2)C(=O)N1C [Example 86],0.53 µM,>500 µM,19 to 38 µM,> 75 µM,,
C[C@H](c1ccccc1)[C@]1(C)C(=O)N(c2cc(Cl)cc(Cl)c2)C(=O)N1C [Example 269],,250 to 500 µM,,,,"Kd [1]: 0.29 µM; IC50 ([3]; Homo sapiens, SKW3): 25 µM; Assay to Detect SKW3 Cells Binding to FIBRONECTIN IC50 [4, 8]: No inh^c"
CN1C(=O)N(c2cc(C(F)(F)F)cc(C(F)(F)F)c2)C(=O)C1(C)Cc1ccccc1 (centres unmarked) [Example 88],0.41 µM,250 to 500 µM,,,,"IC50 [3, 9]: 19 to 38 µM; IC50 [4, 9]: > 75 µM"
O=C1NC(Cc2ccc3ccccc3c2)C(=O)N1c1cc(Cl)cc(Cl)c1 (centres unmarked) [Example 17],3.01 µM,125 µM,> 63 µM,,No inh^c,
CCN1C(=O)N(c2cc(Cl)cc(Cl)c2)C(=O)C1(C)Cc1ccccc1 (centres unmarked) [Example 89],0.29 µM,500 µM,50 µM,,No inh^c,
O=C1NC(Cc2ccc([N+](=O)[O-])cc2)C(=O)N1c1cc(Cl)cc(Cl)c1 (centres unmarked) [Example 7],1.33 µM,250 to 500 µM,50 to 100 µM,,No inh^c,
CC1(Cc2ccccc2)NC(=O)N(c2cc(C(F)(F)F)cc(C(F)(F)F)c2)C1=O (centres unmarked) [Example 16],0.85 µM,63 to 125 µM,19 to 38 µM,> 75 µM,,
O=C1NC(Cc2ccccc2)C(=O)N1c1cc(Cl)cc(Cl)c1 (centres unmarked) [Example 20],1.76 µM,125 to 250 µM,16 µM,63 to 125 µM,,
[2H]C([2H])([2H])N1C(=O)N(c2cc(Cl)cc(Cl)c2)C(=O)[C@@]1(C)Cc1ccc(Br)cc1 [Example 109],,100 to 200 µM,3 to 6 µM,,No inh^c,IC50 [5]: 0.4 µM
C[C@@]1(Cc2ccc(Br)cc2)C(=O)N(c2cc(Cl)cc(Cl)c2)C(=O)N1C(=O)CO [Example 231],,40 to 80 µM,,,,"Kd [1]: 0.27 µM; IC50 ([3]; Homo sapiens, SKW3): 2 to 5 µM; Assay to Detect SKW3 Cells Binding to FIBRONECTIN IC50 [4, 8]: No inh^c"
C[C@@]1(Cc2ccc(Br)cc2)C(=O)N(c2cc(Cl)cc(Cl)c2)C(=O)N1CCCC[N+](C)(C)C [Example 253],,100 to 200 µM,,,,"IC50 [5]: 0.2 µM; Kd [1]: 0.05 µM; IC50 ([3]; Homo sapiens, SKW3): 1 to 2 µM"
O=C1CC(Cc2ccccc2)C(=O)N1c1cc(Cl)cc(Cl)c1 (centres unmarked) [Example 76],2.34 µM,>500 µM,150 to 300 µM,> 300 µM,,
C[C@@]1(Cc2ccc(Br)cc2)C(=O)N(c2cc(Cl)cc(Cl)c2)C(=O)N1CCCCCS(=O)(=O)O [Example 251],,100 to 200 µM,,,,"Kd [1]: 0.06 µM; IC50 ([3]; Homo sapiens, SKW3): < 0.5 µM; Assay to Detect SKW3 Cells Binding to FIBRONECTIN IC50 [4, 8]: No inh^c"
O=C1NC(Cc2ccc([N+](=O)[O-])cc2)C(=O)N1c1cc(Cl)cc(Cl)c1 (centres unmarked) [Example 24],0.85 µM,>400 µM,,,No inh^c,"IC50 [3, 9]: > 60 µM"
CN1C(=O)N(c2cc(Cl)cc(Cl)c2)C(=O)[C@@]1(C)Cc1ccc(-c2ccncc2)cc1 [Example 189],0.19 µM,63 µM,0.6 to 1.2 µM,,No inh^c,
C[C@@]1(Cc2ccc(Br)cc2)C(=O)N(c2cc(Cl)cc(Cl)c2)C(=O)N1CCCCN [Example 241],,9 to 18 µM,,,,"Kd [1]: 0.1 µM; IC50 ([3]; Homo sapiens, SKW3): 0.8 to 1.6 µM; IC50 ([4]; Homo sapiens, SKW3, No inh = no inhibition observed up to highest dose, exact quantification not always possible due to intrinsic toxicity): 13 µM"
CC(=O)N1C(=O)N(c2cc(Cl)cc(Cl)c2)C(=O)C1(C)Cc1ccccc1 (centres unmarked) [Example 96],0.46 µM,100 to 200 µM,50 µM,,No inh^c,
O=C1N[C@@H](Cc2ccccc2)C(=O)N1c1cc(Cl)cc(Cl)c1 [Example 14],12.7 µM,125 to 250 µM,63 to 125 µM,> 125 µM,,
C[C@@H](c1ccccc1)[C@H]1NC(=O)N(c2cc(Cl)cc(Cl)c2)C1=O [Example 22],0.4 µM,125 to 250 µM,< 16 µM,,No inh^c,
CN1C(=O)N(c2cc(Cl)cc(Cl)c2)C(=O)C1Cc1ccccc1 (centres unmarked) [Example 82],2.1 µM,250 to 500 µM,63 to 125 µM,> 250 µM,,
C[C@@]1(Cc2ccccc2)NC(=O)N(c2cc(Cl)cc(Cl)c2)C1=O [Example 2],14.4 µM,125 to 250 µM,> 100 µM,> 100 µM,,
C[C@@]1(Cc2ccc(Br)cc2)C(=O)N(c2cc(Cl)cc(Cl)c2)C(=O)N1CCCCC[N+](C)(C)C [Example 255],,100 to 200 µM,,,,"IC50 [5]: 0.2 µM; Kd [1]: 0.14 µM; IC50 ([3]; Homo sapiens, SKW3): 1 µM"
C[C@H](c1ccccc1)[C@@H]1C(=O)N(c2cc(Cl)cc(Cl)c2)C(=O)N1C [Example 85],0.72 µM,>500 µM,19 to 38 µM,> 75 µM,,
C[C@@]1(Cc2ccc([N+](=O)[O-])cc2)C(=O)N(c2cc(Cl)cc(Cl)c2)C(=O)N1S(C)(=O)=O [Example 136],0.19 µM,150 to 300 µM,0.6 to 1 µM,,No inh^c,
C[C@@]1(Cc2ccc(Br)cc2)C(=O)N(c2cc(Cl)cc(Cl)c2)C(=O)N1CCC[N+](C)(C)C [Example 254],,100 to 200 µM,,,,"IC50 [5]: 0.4 µM; Kd [1]: 0.08 µM; IC50 ([3]; Homo sapiens, SKW3): 1 to 2 µM"
